The experiment relates to BDF1 mice, P388 leukemia ip, median survival T/C. Description: NCI In Vivo Anticancer Drug Screen. Data for tumor model P388 Leukemia (intraperitoneal) in B6D2F1 (BDF1) mice. The conditions noted are these: endpoint: median survival time, higher = longer survival. In a few lines: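 Antitumour effect was judged in vivo: survival in drug-treated mice, normalised to that of vehicle-dosed controls, gives the reported T/C.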

Where [1] appears, read: dose: 100.0 mg/kg/injection, schedule: Q01DX009 (ip), vehicle: Klucel (hydroxypropylcellulose) (HPC).
Where [2] appears, read: dose: 200.0 mg/kg/injection, schedule: Q01DX009 (ip), vehicle: Klucel (hydroxypropylcellulose) (HPC).
[3] abbreviates: dose: 6.25 mg/kg/injection, schedule: Q01DX009 (ip), vehicle: saline with Tween-80.
[4] abbreviates: dose: 12.5 mg/kg/injection, schedule: Q01DX009 (ip), vehicle: saline with Tween-80.
Setting [5] is: dose: 25.0 mg/kg/injection, schedule: Q01DX009 (ip), vehicle: saline with Tween-80.
[6] abbreviates: dose: 50.0 mg/kg/injection, schedule: Q01DX009 (ip), vehicle: saline with Tween-80.
Setting [7] is: dose: 100.0 mg/kg/injection, schedule: Q01DX009 (ip), vehicle: saline with Tween-80.
Setting [8] is: dose: 200.0 mg/kg/injection, schedule: Q01DX009 (ip), vehicle: saline with Tween-80.
Setting [9] is: dose: 400.0 mg/kg/injection, schedule: Q01DX009 (ip), vehicle: saline with Tween-80.
Where [10] appears, read: dose: 100.0 mg/kg/injection, schedule: Q04DX003 (ip), vehicle: saline.
[11] abbreviates: dose: 200.0 mg/kg/injection, schedule: Q04DX003 (ip), vehicle: saline.
The mark [12] stands for this setting: dose: 100.0 mg/kg/injection, schedule: Q04DX003 (ip), vehicle: saline with Tween-80.
The mark [13] stands for this setting: dose: 200.0 mg/kg/injection, schedule: Q04DX003 (ip), vehicle: saline with Tween-80.
[14] abbreviates: dose: 50.0 mg/kg/injection, schedule: Q04DX003 (ip), vehicle: saline with Tween-80.
Where [15] appears, read: dose: 400.0 mg/kg/injection, schedule: Q04DX003 (ip), vehicle: saline with Tween-80.

Values joined by “and” are separate entries in the source; they are usually repeats but may differ in a detail not shown here. Equal values may be shown once. Inconclusive results and toxic doses are left out. Non-standard residues stand in square brackets, D forms with d. Residues, ends and D or L forms follow the SMILES beside them. ξ: configuration not given here. ξF = NC(Cc1ccccc1)C(=O)O

Data on 17 compounds can be found in PubChem BioAssay AID328 (DTP/NCI, 2004).

As to `CCCCN=C(N)c1ccc(NC(=O)c2ccc(C(=O)Nc3ccc(C(N)=NCCCC)cc3)cc2)cc1`, the T/C was 122 % of control (dose: 15.0 mg/kg/injection, schedule: Q04DX003 (ip), vehicle: saline with Tween-80); 154 % of control (dose: 26.0 mg/kg/injection, schedule: Q04DX003 (ip), vehicle: saline with Tween-80); 196 % of control (dose: 30.0 mg/kg/injection, schedule: Q01DX009 (ip), vehicle: saline with Tween-80); 158 % of control and 181 % of control (dose: 30.0 mg/kg/injection, schedule: Q04DX003 (ip), vehicle: saline with Tween-80); 166 % of control and 181 % of control (dose: 40.0 mg/kg/injection, schedule: Q04DX003 (ip), vehicle: saline with Tween-80); 179 % of control (dose: 45.0 mg/kg/injection, schedule: Q04DX003 (ip), vehicle: saline with Tween-80). In addition, the T/C runs as follows: (dose: 60.0 mg/kg/injection, schedule: Q04DX003 (ip), vehicle: saline with Tween-80) 163 % of control and 183 % of control and 186 % of control; (dose: 90.0 mg/kg/injection, schedule: Q04DX003 (ip), vehicle: saline with Tween-80) 204 % of control.
Consider `CCCCCCCCO/N=C\c1c2c(O)c3c(O)c(C)c4c(c3c1O)C(=O)C(C)(O/C=C\C(OC)C(C)C(OC(C)=O)C(C)C(O)C(C)C(O)C(C)/C=C\C=C(\C)C(=O)N2)O4` (stereo unspecified), for which the T/C was 100 % of control under setting [1] and 100 % of control under setting [2].
Consider `Nc1ccc(S(=O)(=O)N/N=C/c2ccccc2[N+](=O)[O-])cc1`, for which the T/C was 95 % of control under setting [3], 100 % of control under setting [4] and 101 % of control under setting [5].
For `CC(Cl)CN(CC(C)Cl)c1ccc(S(=O)(=O)Nc2ncccn2)cc1` (stereo unspecified), the T/C was 152 % of control (dose: 12.0 mg/kg/injection, schedule: Q01DX009 (ip), vehicle: gum acacia); 166 % of control and 172 % of control (dose: 26.0 mg/kg/injection, schedule: Q01DX009 (ip), vehicle: gum acacia); 175 % of control (dose: 40.0 mg/kg/injection, schedule: Q01DX009 (ip), vehicle: gum acacia); 190 % of control (dose: 50.0 mg/kg/injection, schedule: Q01DX009 (ip), vehicle: gum acacia); 100 % of control (dose: 50.0 mg/kg/injection, schedule: Q04DX003 (ip), vehicle: gum acacia); 183 % of control (dose: 60.0 mg/kg/injection, schedule: Q01DX009 (ip), vehicle: gum acacia). The T/C reads like this: (dose: 90.0 mg/kg/injection, schedule: Q01DX009 (ip), vehicle: gum acacia) 183 % of control and 215 % of control; (dose: 100.0 mg/kg/injection, schedule: Q01DX009 (ip), vehicle: gum acacia) 272 % of control; (dose: 100.0 mg/kg/injection, schedule: Q04DX003 (ip), vehicle: gum acacia) 100 % of control; (dose: 133.0 mg/kg/injection, schedule: Q01DX009 (ip), vehicle: gum acacia) 230 % of control; (dose: 200.0 mg/kg/injection, schedule: Q04DX003 (ip), vehicle: gum acacia) 105 % of control.
On to `COc1ccc(S(=O)(=O)c2ccccc2)c2nonc12`, for which the T/C under setting [5] was 90 % of control, the T/C under setting [6] was 86 % of control and the T/C under setting [7] was 92 % of control.
On to `Cc1ccc(NS(=O)(=O)c2ccc(F)cc2)cc1C`, for which the T/C reads like this: (dose: 100.0 mg/kg/injection, schedule: Q04DX003 (ip), vehicle: Klucel (hydroxypropylcellulose) (HPC)) 109 % of control; (dose: 200.0 mg/kg/injection, schedule: Q04DX003 (ip), vehicle: Klucel (hydroxypropylcellulose) (HPC)) 109 % of control; (dose: 400.0 mg/kg/injection, schedule: Q04DX003 (ip), vehicle: Klucel (hydroxypropylcellulose) (HPC)) 104 % of control.
Take `CCC(=O)c1cc(O)ccc1O`: the T/C (dose: 50.0 mg/kg/injection, schedule: Q01DX009 (ip), vehicle: other) was 106 % of control and the T/C (dose: 100.0 mg/kg/injection, schedule: Q01DX009 (ip), vehicle: other) was 97 % of control.
On to `CCOC(=O)C1NC(=S)NCC1=O` (stereo unspecified), for which the T/C reads like this: under setting [1], 110 % of control; under setting [2], 110 % of control.
In the case of `O=C(CC(NC(=O)OCc1ccccc1)C(=O)OCc1ccccc1)OCc1ccccc1` (stereo unspecified), the T/C by setting is: under setting [7], 97 % of control; under setting [8], 108 % of control; under setting [9], 97 % of control.
Take `NC(Cc1ccccc1)C(=O)NCC(=O)O` (stereo unspecified) (H-[ξF]-Gly-OH): the T/C under setting [10] is 100 % of control; the T/C under setting [11] was 100 % of control; the T/C (dose: 400.0 mg/kg/injection, schedule: Q04DX003 (ip), vehicle: saline) was 100 % of control.
Take `O=Cc1ccc(C=O)c(Cl)c1`: the T/C under setting [5] is 104 % of control; the T/C under setting [6] is 90 % of control; the T/C (dose: 88.0 mg/kg/injection, schedule: Q04DX003 (ip), vehicle: saline sonified) is 105 % of control; the T/C under setting [7] is 118 % of control; the T/C (dose: 132.0 mg/kg/injection, schedule: Q04DX003 (ip), vehicle: saline sonified) was 100 % of control; the T/C (dose: 200.0 mg/kg/injection, schedule: Q04DX003 (ip), vehicle: saline sonified) is 100 % of control. Further, where the note is “dose: 300.0 mg/kg/injection, schedule: Q04DX003 (ip), vehicle: saline sonified”, the T/C was 120 % of control.
As to `Cc1ncnc2c1CCC2`, the T/C runs as follows: under setting [6], 97 % of control; under setting [7], 111 % of control; under setting [12], 109 % of control; under setting [8], 87 % of control; under setting [13], 95 % of control.
With `CN(C)C(=O)c1cccc(NCc2ccc3nc(N)nc(N)c3c2)c1`, the T/C runs as follows: (dose: 3.12 mg/kg/injection, schedule: Q01DX009 (ip), vehicle: saline with Tween-80) 108 % of control; under setting [3], 99 % of control; under setting [4], 106 % of control; under setting [5], 99 % of control; under setting [6], 95 % of control and 108 % of control; under setting [14], 100 % of control. The T/C reads like this: under setting [7], 91 % of control; under setting [12], 100 % of control; under setting [8], 101 % of control; under setting [13], 104 % of control; under setting [9], 94 % of control; under setting [15], 102 % of control.
Consider `CC(=O)OCC(=O)[C@@]1(O)CC[C@H]2[C@@H]3CCC4=CC(=O)CC[C@]4(C)[C@H]3[C@@H](O)C[C@@]21C`, for which the T/C runs as follows: (dose: 90.0 mg/kg/injection, schedule: Q01DX010 (sc), vehicle: steriod suspending solution) 100 % of control; under setting [7], 100 % of control; (dose: 130.0 mg/kg/injection, schedule: Q01DX010 (sc), vehicle: steriod suspending solution) 88 % of control; under setting [8], 110 % of control; under setting [9], 90 % of control.
For `CC1(c2cccs2)NC(=O)NC1=O` (stereo unspecified), the T/C is 104 % of control under setting [5]; 96 % of control and 124 % of control under setting [6]; 112 % of control and 111 % of control under setting [7]; 100 % of control under setting [12]; 101 % of control under setting [8]; 104 % of control and 98 % of control under setting [13]. The T/C under setting [15] is 100 % of control and 90 % of control.
Turning to `O=[N+]([O-])c1cccc(O)c1`, the T/C was 100 % of control (dose: 100.0 mg/kg/injection, schedule: Q01DX001 (ip), vehicle: saline); 109 % of control under setting [7]; 118 % of control under setting [10]; 100 % of control (dose: 200.0 mg/kg/injection, schedule: Q01DX001 (ip), vehicle: saline); 86 % of control under setting [8]; 100 % of control under setting [11]. Besides, where the note is “dose: 400.0 mg/kg/injection, schedule: Q01DX001 (ip), vehicle: saline”, the T/C was 100 % of control.
For `CN1CCN(C2CCCCc3ccccc32)CC1` (stereo unspecified), the T/C is 104 % of control (dose: 25.0 mg/kg/injection, schedule: Q04DX003 (ip), vehicle: saline with Tween-80); 113 % of control under setting [14]; 109 % of control under setting [12].
